As usually defined, the Ki is a dissociation constant, usually derived from enzyme kinetics or from competition with a known ligand.

Some results are limits rather than exact numbers.

Common to all, as to type: biochemical
The target of one experiment is T1, human cathepsin B (Homo sapiens, UniProt P07858).
T1 construct: purchased CN Biosciences
Description: Cathepsin B peptidase activity assay (Ki). The note with it: read-out: Ki, inhibitors of cathepsin B. How it is done:
Unless otherwise stated, all general chemicals and biochemicals were purchased from either the Sigma Chemical Company, Poole, Dorset, U.K or from Fisher Scientific UK, Loughborough, Leicestershire, U.K. Absorbance assays were carried out in flat-bottomed 96-well plates (Spectra; Greiner Bio-One Ltd., Stonehouse, Gloucestershire, U.K.) using a SpectraMax PLUS384 plate reader (Molecular Devices, Crawley, U.K.). […] Fluorescence assays were monitored using a SpectraMax Gemini fluorescence plate reader (Molecular Devices). For substrates employing either a 7-amino-4-methylcoumarin (AMC) or a 7-amino-4-trifluoromethylcoumarin (AFC) fluorophore, assays were monitored at an excitation wavelength of 365 nm and an emission wavelength of 450 nm and the fluorescence plate reader calibrated with AMC. For substrates employing a 3-amino-benzoyl (Abz) fluorophore, assays were monitored at an excitation wavelength of 310 nm and an emission wavelength of 445 nm; the fluorescence plate reader calibrated with 3-amino-benzamide (Fluka). Unless otherwise indicated, all the peptidase substrates were purchased from Bachem UK, St Helens, Merseyside, UK. […] Hydroxyethylpiperazine ethanesulfonate (HEPES), tris-hydroxylmethyl aminomethane (tris) base, bis-tris-propane and all the biological detergents (e.g. CHAPS, zwittergents, etc.) were purchased from CN Biosciences UK, Beeston, Nottinghamshire, U.K. Glycerol was purchased from Amersham Pharmacia Biotech, Little Chalfont, Buckinghamshire, U.K. Stock solutions of substrate or inhibitor were made up to 10 mM in 100% dimethylsulfoxide (DMSO) (Rathburns, Glasgow, U.K.) and diluted as appropriately required. In all cases the DMSO concentration in the assays was maintained at less than 1% (vol./vol.).
Enzyme was added as required to initiate the reaction and the activity, as judged by the change in fluorescence upon conversion of substrate to product, was monitored over time. All assays were carried out at 25±1° C.
Bovine cathepsin S, human cathepsin L, human cathepsin H and human cathepsin B were obtained from CN Biosciences. Recombinant human cathepsin S, human cathepsin K and human cathepsin X were obtained from Dr. Boris Turk (Josef Stefan Institute, Ljubljana, Slovenia). Unless otherwise stated, all peptidase activity assays were carried out in 10 mM bis-tris-propane (BTP), pH 6.5 containing 1 mM EDTA, 5 mM 2-mercaptoethanol and 1 mM CaCl2.
The apparent inhibition constant (Ki) for each compound was determined on the basis that inhibition was reversible and occurred by a pure-competitive mechanism. […] [formula]
[formula] Ki^app=Ki(1+[So]/KM^app) (4)
Curves were fitted by non-linear regression analysis (Prism) using a fixed value for the enzyme concentration.

In a further experiment the target is T2, human cathepsin L (Homo sapiens, UniProt P07711).
T2 construct: purchased CN Biosciences
As to the kind of experiment: Cathepsin L peptidase activity assay (Ki). The settings on record: read-out: Ki, inhibitors of cathepsin L. In a few lines:
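Human cathepsin L at 1 nM with Ac-Phe-Arg-AMC at its KM^app (~20 μM) in 10 mM bis-tris-propane pH 6.5, 1 mM EDTA, 5 mM 2-mercaptoethanol, 1 mM CaCl2, DMSO <1%, 25±1° C. Reaction enzyme-initiated; AMC fluorescence (ex 365/em 450 nm) monitored over time.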

The next experiment has as its target T3, CPB2.8ΔCTE (Leishmania mexicana, UniProt P36400).
T3 construct: Wild-type recombinant CPB without the C-terminal extention (i.e. CPB2.8ΔCTE); Dr. Jeremy Mottram (Wellcome Centre for Molecular Parasitology, University of Glasgow)
Description: Leishmania mexicana cysteine protease B (CPB) peptidase activity assay (Ki). The note with it: Ki, inhibitors of Leismania mexicana CPB protease. Summed up: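 Recombinant CPB2.8ΔCTE (0.25 nM) was assayed in 100 mM sodium acetate pH 5.5 with 1 mM EDTA, 200 mM NaCl and 10 mM DTT at 25 °C, DMSO <1%, enzyme added to start. Rates were taken from continuous fluorescence slopes; apparent Ki was fitted assuming reversible, pure-competitive inhibition.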

The target of a further experiment is Wild-type cruzipain (Trypanosoma cruzi, UniProt P25779). As to the kind of experiment: Trypanosoma cruzi cruzipain peptidase activity assay (Ki). The note with it: read-out: Ki, inhibitors of cruzain and cruzipains. In a few lines:
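Native cruzipain from T. cruzi Dm28 epimastigotes, 2.5 nM, in 100 mM sodium phosphate pH 6.75 with 1 mM EDTA and 10 mM L-cysteine, 25 °C, DMSO <1%. Rates taken from continuous fluorogenic substrate read; Ki by regression assuming reversible pure-competitive inhibition.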

Chain of Wild-type cruzipain (P25779 whole entry): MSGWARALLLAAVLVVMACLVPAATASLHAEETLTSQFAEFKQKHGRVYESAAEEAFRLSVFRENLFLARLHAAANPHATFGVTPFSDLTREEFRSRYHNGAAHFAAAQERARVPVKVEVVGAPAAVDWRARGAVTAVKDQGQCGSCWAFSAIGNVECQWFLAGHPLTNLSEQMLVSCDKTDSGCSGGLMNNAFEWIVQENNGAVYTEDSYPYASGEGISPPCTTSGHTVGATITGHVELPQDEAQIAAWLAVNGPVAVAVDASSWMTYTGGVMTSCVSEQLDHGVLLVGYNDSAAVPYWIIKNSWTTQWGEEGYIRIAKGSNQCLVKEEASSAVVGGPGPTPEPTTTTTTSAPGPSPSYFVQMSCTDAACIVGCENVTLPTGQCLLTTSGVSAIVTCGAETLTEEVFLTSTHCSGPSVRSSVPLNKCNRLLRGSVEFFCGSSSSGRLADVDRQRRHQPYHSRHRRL
T2 sequence (P07711 114-333): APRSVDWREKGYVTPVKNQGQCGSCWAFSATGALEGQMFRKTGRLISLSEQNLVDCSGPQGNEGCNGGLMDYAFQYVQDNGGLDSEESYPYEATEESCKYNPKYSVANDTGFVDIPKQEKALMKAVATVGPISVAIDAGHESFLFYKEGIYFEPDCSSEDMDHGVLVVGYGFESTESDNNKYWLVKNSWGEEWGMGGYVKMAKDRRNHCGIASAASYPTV
T3 sequence (P36400 126-343, stated change not applied): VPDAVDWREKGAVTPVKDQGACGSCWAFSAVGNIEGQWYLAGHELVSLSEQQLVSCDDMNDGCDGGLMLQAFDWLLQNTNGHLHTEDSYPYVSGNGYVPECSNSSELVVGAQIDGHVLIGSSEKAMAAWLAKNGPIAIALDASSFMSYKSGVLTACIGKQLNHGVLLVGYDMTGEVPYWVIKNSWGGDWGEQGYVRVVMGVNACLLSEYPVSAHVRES

On to `O=C(N[C@@H](CSCc1ccccc1)C(=O)N1CC[C@@H]2[C@H]1C(=O)CN2C(=O)c1ccccc1)c1ccsc1` [Example 251, (3aR,6aS)-Thiophene-3-carboxylic acid [(1R)-2-(4-benzoyl-6-oxo-hexahydro-pyrrolo[3,2-b]pyrrole-1-yl)-1-benzylsulfanylmethyl-2-oxo-ethyl]-amide], for which the inhibition constant (Ki) on human cathepsin B and on human cathepsin L was less than 5 µM each time.

Regarding `CS(=O)(=O)c1cccc(C(=O)N2CC(=O)[C@@H]3[C@H]2CCN3C(=O)[C@H](CSCc2ccccc2)NC(=O)c2ccsc2)c1` [Example 262, (3aR,6aS)-Thiophene-3-carboxylic acid {(1R)-1-benzylsulfanylmethyl-2-(4-(3-methanesulfonyl-benzoyl)-6-oxo-hexahydro-pyrrolo[3,2-b]pyrrol-1-yl)-2-oxo-ethyl}-amide], the inhibition constant (Ki) on human cathepsin B and on human cathepsin L was less than 5 µM each time.

Regarding `O=C(N[C@@H](CC1CCCCC1)C(=O)N1CC[C@@H]2[C@H]1C(=O)CN2C(=O)c1ccccc1)c1cccc(Oc2ccccc2)c1` [Example 259, (3aR,6aS)-N-[(1S)-2-(4-Benzoyl-6-oxo-hexahydro-pyrrolo[3,2-b]pyrrol-1-yl)-1-cyclohexylmethyl-2-oxo-ethyl]-3-phenoxy-benzamide], the Ki on human cathepsin B and on human cathepsin L was less than 5 µM throughout.

As to `O=C(N[C@@H](CSCc1ccccc1)C(=O)N1CC[C@@H]2[C@H]1C(=O)CN2C(=O)c1ccccc1)c1ccc2ncsc2c1` [Example 281, (3aR,6aS)-Benzothiazole-6-carboxylic acid [(1R)-2-(4-benzoyl-6-oxo-hexahydro-pyrrolo[3,2-b]pyrrole-1-yl)-1-benzylsulfanylmethyl-2-oxo-ethyl]-amide], the inhibitory constant (Ki) on human cathepsin B and at human cathepsin L was less than 5 µM each time.

As for `CC(C)C[C@H](NC(=O)c1ccc(N(C)C)cc1)C(=O)N1CC[C@@H]2[C@H]1C(=O)CN2C(=O)c1ccc(Cl)cc1` [Example 74, (3aR,6aS)-N-{(1S)-1-[4-(4-Chloro-benzoyl)-6-oxo-hexahydro-pyrrolo[3,2-b]pyrrole-1-carbonyl]-3-methyl-butyl}-4-dimethylamino-benzamide], the Ki at human cathepsin B, on CPB2.8ΔCTE and at Wild-type cruzipain was less than 5 µM throughout.

For `CC(C)C[C@H](NC(=O)c1ccc(N(C)C)cc1)C(=O)N1CC[C@@H]2[C@H]1C(=O)CN2C(=O)c1ccc2c(c1)OCO2` [Example 77, (3aR,6aS)-N-{(1S)-1-[4-(Benzo[1,3]dioxole-5-carbonyl)-6-oxo-hexahydro-pyrrolo[3,2-b]pyrrole-1-carbonyl]-3-methyl-butyl}-4-dimethylamino-benzamide], the Ki on human cathepsin B, at CPB2.8ΔCTE and on Wild-type cruzipain was less than 5 µM each time.

For `Cc1cccc(C(=O)N2CC(=O)[C@@H]3[C@H]2CCN3C(=O)[C@H](CSCc2ccccc2)NC(=O)c2ccsc2)c1` [Example 275, (3aR,6aS)-Thiophene-3-carboxylic acid {(1R)-1-benzylsulfanylmethyl-2-[4-(3-methyl-benzoyl)-6-oxo-hexahydro-pyrrolo[3,2-b]pyrrol-1-yl]-2-oxo-ethyl}-amide], the Ki at human cathepsin B and at human cathepsin L was less than 5 µM throughout.

`CC(C)C[C@H](NC(=O)c1ccc(N(C)C)cc1)C(=O)N1CC[C@@H]2[C@H]1C(=O)CN2C(=O)c1cccc(S(C)(=O)=O)c1` [Example 43, (3aR,6aS)-4-Dimethylamino-N-{(1S)-1-[4-(3-methanesulfonyl-benzoyl)-6-oxo-hexahydro-pyrrolo[3,2-b]pyrrole-1-carbonyl]-3-methyl-butyl}-benzamide]: the Ki at human cathepsin B, at CPB2.8ΔCTE and on Wild-type cruzipain was less than 5 µM throughout.

Regarding `O=C(N[C@@H](CSCc1ccccc1)C(=O)N1CC[C@@H]2[C@H]1C(=O)CN2C(=O)C1CCCCC1)c1ccsc1` [Example 273, (3aR,6aS)-Thiophene-3-carboxylic acid [(1R)-1-benzylsulfanylmethyl-2-(4-cyclohexanecarbonyl-6-oxo-hexahydro-pyrrolo[3,2-b]pyrrol-1-yl)-2-oxo-ethyl]-amide], the Ki at human cathepsin B and on human cathepsin L was less than 5 µM in each case.

`CC(C)C[C@H](NC(=O)c1ccc(C(C)(C)C)cc1)C(=O)N1CC[C@@H]2[C@H]1C(=O)CN2C(=O)c1cncc(-c2cccs2)c1` [Example 35, (3aR,6aS)-4-tert-Butyl-N-{(1S)-3-methyl-1-[6-oxo-4-(5-thiophen-2-yl-pyridine-3-carbonyl)-hexahydro-pyrrolo[3,2-b]pyrrole-1-carbonyl]-butyl}-benzamide]: the Ki at human cathepsin B, on CPB2.8ΔCTE and on Wild-type cruzipain was less than 5 µM in each case.

As to `CCC(C)CC(=O)N1CC(=O)[C@@H]2[C@H]1CCN2C(=O)[C@H](CC(C)C)NC(=O)c1ccc(N(C)C)cc1` (stereo partly drawn) [Example 141, (3aR,6aS)-4-Dimethylamino-N-{(1S)-3-methyl-1-[4-(3-methyl-pentanoyl)-6-oxo-hexahydro-pyrrolo[3,2-b]pyrrole-1-carbonyl]-butyl}-benzamide], the Ki at human cathepsin B, on CPB2.8ΔCTE and on Wild-type cruzipain was less than 5 µM throughout.

For the compound `CC(C)C[C@H](NC(=O)c1ccc(N(C)C)cc1)C(=O)N1CC[C@@H]2[C@H]1C(=O)CN2C(=O)c1cccc([N+](=O)[O-])c1` [Example 46, (3aR,6aS)-4-Dimethylamino-N-{(1S)-3-methyl-1-[4-(3-nitro-benzoyl)-6-oxo-hexahydro-pyrrolo[3,2-b]pyrrole-1-carbonyl]-butyl}-benzamide], the Ki at human cathepsin B, on CPB2.8ΔCTE and at Wild-type cruzipain was less than 5 µM each time.

With `CCN(CC)c1ccc(C(=O)N[C@@H](CC(C)C)C(=O)N2CC[C@@H]3[C@H]2C(=O)CN3C(=O)c2cccc(S(C)(=O)=O)c2)cc1` [Example 60, (3aR,6aS)-4-Diethylamino-N-{(1S)-1-[4-(3-methanesulfonyl-benzoyl)-6-oxo-hexahydro-pyrrolo[3,2-b]pyrrole-1-carbonyl]-3-methyl-butyl}-benzamide], the Ki at human cathepsin B, at CPB2.8ΔCTE and on Wild-type cruzipain was less than 5 µM throughout.

For the compound `CC(C)C[C@H](NC(=O)c1ccc(C(C)(C)C)cc1)C(=O)N1CC[C@@H]2[C@H]1C(=O)CN2C(=O)c1csc(-c2ccccc2)n1` [Example 27, (3aR,6aS)-4-tert-Butyl-N-{(1S)-3-methyl-1-[6-oxo-4-(2-phenyl-thiazole-4-carbonyl)-hexahydro-pyrrolo[3,2-b]pyrrole-1-carbonyl]-butyl}-benzamide], the inhibition constant (Ki) at human cathepsin B, on CPB2.8ΔCTE and at Wild-type cruzipain was less than 5 µM in each case.

Regarding `CC(C)C[C@H](NC(=O)c1ccc(N(C)C)cc1)C(=O)N1CC[C@@H]2[C@H]1C(=O)CN2C(=O)C12CC3CC(CC(C3)C1)C2` [Example 48, (3aR,6aS)-N-{(1S)-1-[4-(Adamantane-1-carbonyl)-6-oxo-hexahydro-pyrrolo[3,2-b]pyrrole-1-carbonyl]-3-methyl-butyl}-4-dimethylamino-benzamide], the Ki on human cathepsin B, at CPB2.8ΔCTE and on Wild-type cruzipain was less than 5 µM each time.

As for `CC(C)C[C@H](NC(=O)c1ccc(N(C)C)cc1)C(=O)N1CC[C@@H]2[C@H]1C(=O)CN2C(=O)c1ccc(Cl)s1` [Example 166, (3aR,6aS)-N-{(1S)-1-[4-(5-Chloro-thiophene-2-carbonyl)-6-oxo-hexahydro-pyrrolo[3,2-b]pyrrole-1-carbonyl]-3-methyl-butyl}-4-dimethylamino-benzamide], the Ki on human cathepsin B, at CPB2.8ΔCTE and at Wild-type cruzipain was less than 5 µM throughout.

The values are drawn from patent US20060100431A1, “Biologically active compounds” (Amura Therapeutics Limited, priority 2002, published 2006).
